From US20260125400A1, “TYK2 DEGRADERS AND USES THEREOF” (Kymera Therapeutics, Inc., priority 2023, published 2026) come the findings set out here.

In the assay the target is T1, TYK2 (Homo sapiens, UniProt P29597).
T1 construct: Degradation of TYK2 in cells was quantitatively measured using Meso Scale Discovery (MSD) technology; endogenous in cells; host or cells: OCI-LY10
Kind of assay: TYK2 MSD degradation in OCI-LY10 cells. The class given is cell-based. The settings on record: TYK2 degradation in OCI-LY10 cells, 4 to 24 hours incubation; for DC50: read-out: TYK2 MSD OCI-LY10 Rel-DC50. The method, boiled down: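 OCI-LY10 cells were treated with 9-dose 1:3 series (top 1 to 10 μM final) for 4 to 24 hours at 37° C. Lysate TYK2 quantified by MSD sandwich immunoassay; DC50 and Dmax from four-parameter inhibitor vs. response fit.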

T1 sequence (P29597 whole entry): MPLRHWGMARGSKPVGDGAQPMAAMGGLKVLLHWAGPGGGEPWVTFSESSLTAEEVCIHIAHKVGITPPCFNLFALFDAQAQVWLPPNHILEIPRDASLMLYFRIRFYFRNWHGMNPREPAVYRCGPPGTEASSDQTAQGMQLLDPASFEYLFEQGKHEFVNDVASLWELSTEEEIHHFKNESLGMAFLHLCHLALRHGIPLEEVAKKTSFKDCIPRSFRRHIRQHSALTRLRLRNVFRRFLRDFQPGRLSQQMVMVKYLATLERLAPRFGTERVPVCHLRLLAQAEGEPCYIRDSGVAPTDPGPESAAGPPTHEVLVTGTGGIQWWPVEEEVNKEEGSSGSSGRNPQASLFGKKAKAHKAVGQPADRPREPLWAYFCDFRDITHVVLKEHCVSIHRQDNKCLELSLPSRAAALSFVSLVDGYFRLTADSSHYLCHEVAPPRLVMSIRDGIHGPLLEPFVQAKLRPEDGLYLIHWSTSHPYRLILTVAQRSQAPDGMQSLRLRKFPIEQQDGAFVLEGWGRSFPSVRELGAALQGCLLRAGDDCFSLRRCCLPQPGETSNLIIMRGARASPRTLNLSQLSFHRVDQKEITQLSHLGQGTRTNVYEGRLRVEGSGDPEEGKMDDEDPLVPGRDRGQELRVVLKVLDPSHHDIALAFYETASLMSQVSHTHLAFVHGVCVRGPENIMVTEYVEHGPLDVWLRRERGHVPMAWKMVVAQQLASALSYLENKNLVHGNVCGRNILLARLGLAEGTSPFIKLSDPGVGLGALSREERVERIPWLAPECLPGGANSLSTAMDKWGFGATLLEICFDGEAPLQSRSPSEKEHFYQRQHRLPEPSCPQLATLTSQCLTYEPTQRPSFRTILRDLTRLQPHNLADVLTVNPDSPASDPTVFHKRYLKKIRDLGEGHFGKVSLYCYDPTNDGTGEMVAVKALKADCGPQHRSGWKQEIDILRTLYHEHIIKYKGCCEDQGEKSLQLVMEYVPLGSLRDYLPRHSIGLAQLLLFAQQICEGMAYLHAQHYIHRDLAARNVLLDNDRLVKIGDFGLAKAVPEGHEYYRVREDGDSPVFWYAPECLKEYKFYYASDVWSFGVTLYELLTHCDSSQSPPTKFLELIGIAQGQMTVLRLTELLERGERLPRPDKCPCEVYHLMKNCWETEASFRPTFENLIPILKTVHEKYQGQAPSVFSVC

For orientation: DC50 means the concentration giving 50% degradation. Take `CNc1cc(N2CCc3c(-c4ncc(CN5CC6(CCN(C(=O)c7cc(C)c(Cl)c(N8CCC(=O)NC8=O)c7)CC6(F)F)C5)cc4F)cccc32)nn2c(C(=O)NC3CC3)cnc12` [I-982]: the “TYK2 MSD OCI-LY10 Dmax %” value is listed as “B (B (90 to >75%))” and the DC50 was less than 1 nM.

In the case of `CNc1cc(N2CCc3c(-c4ncc(CN5CC6(CCN(C(=O)c7cc(C)c(C)c(N8CCC(=O)NC8=O)c7)CC6(F)F)C5)cc4F)cccc32)nn2c(C(=O)N[C@@H]3C[C@@H]3F)cnc12` [I-989], the “TYK2 MSD OCI-LY10 Dmax %” value was “A (A (>90%))” and the DC50 was less than 1 nM.

Consider `CNc1cc(N2CCc3c(-c4ncc(CN5CC6(CCN(C(=O)c7cc(C)c(Cl)c(N8CCC(=O)NC8=O)c7)CC6(F)F)C5)cc4F)cccc32)nn2c(C(=O)NC3CCCC3)cnc12` [I-990], for which the “TYK2 MSD OCI-LY10 Dmax %” value is recorded as “B (B (90 to >75%))” and the DC50 was less than 10 nM.

Take `CNc1cc(N2CCc3c(-c4ncc(CN5CC6(CCN(C(=O)c7cc(C)c(Cl)c(N8CCC(=O)NC8=O)c7)CC6(F)F)C5)cc4F)cccc32)nn2c(C(=O)NC3CCC3)cnc12` [I-991]: the “TYK2 MSD OCI-LY10 Dmax %” value is reported as “B (B (90 to >75%))” and the DC50 was less than 10 nM.

As for `CNc1cc(N2CCc3c(-c4ncc(CN5CC6(CCN(C(=O)c7cc(C)c(C)c(N8CCC(=O)NC8=O)c7)CC6(F)F)C5)cc4F)cccc32)nn2c(C(=O)NC3CCC3OC)cnc12` (stereo not shown) [I-993], the “TYK2 MSD OCI-LY10 Dmax %” value is recorded as “A (A (>90%))” and the 50% degradation concentration (DC50) was less than 1 nM.

In the case of `CNc1cc(N2CCc3c(-c4ncc(CN5CC6(CCN(C(=O)c7cc(F)c(Cl)c(N8CCC(=O)NC8=O)c7)CC6(F)F)C5)cc4F)cccc32)nn2c(C(=O)N[C@@H]3C[C@@H]3F)cnc12` [I-994], the “TYK2 MSD OCI-LY10 Dmax %” value is “A (A (>90%))” and the DC50 was less than 1 nM.

As to `CNc1cc(N2CCc3c(CN4CCC(N5CCC6(CCN(C(=O)c7cc(C)c(C)c(N8CCC(=O)NC8=O)c7)CC6)CC5)C(F)(F)C4)cccc32)nn2c(C(=O)N[C@@H]3CC[C@H]3OC)cnc12` (stereo partly shown) [I-995], the “TYK2 MSD OCI-LY10 Dmax %” value is reported as “A (A (>90%))” and the DC50 was less than 1 nM.

As to `CNc1cc(N2CCc3c(-c4ccc(CN5CCC6(CCN(C(=O)c7cc(C)c(Cl)c(N8CCC(=O)NC8=O)c7)CC6)C(F)(F)C5)cn4)cccc32)nn2c(C(=O)NC3CCC3(F)F)cnc12` (stereo not shown) [I-996], the “TYK2 MSD OCI-LY10 Dmax %” value is “B (B (90 to >75%))” and the DC50 was less than 10 nM.

As for `CNc1cc(N2CCc3c(-c4ccc(OC5CC6(CCN(C(=O)c7cc(C)c(Cl)c(N8CCC(=O)NC8=O)c7)CC6)C5)cn4)cccc32)nn2c(C(=O)N[C@@H]3CC[C@H]3OC)cnc12` [I-997], the “TYK2 MSD OCI-LY10 Dmax %” value is given as “A (A (>90%))” and the 50% degradation concentration (DC50) is less than 1 nM.

Turning to `CNc1cc(N2CCc3c(-c4ccc(CN5CCC6(CCN(C(=O)c7cc(C)c(Cl)c(N8CCC(=O)NC8=O)c7)CC6)C(F)(F)C5)cn4)cccc32)nn2c(C(=O)NC3CCCC3(F)F)cnc12` (stereo not shown) [I-998], the “TYK2 MSD OCI-LY10 Dmax %” value is “C (C (75 to 50%))” and the DC50 fell in the range of 10 to 100 nM.

On to `CNc1cc(N2CCc3c(CN4CCC(N5CCC6(CCN(C(=O)c7cc(Cl)c(C)c(N8CCC(=O)NC8=O)c7)CC6)CC5)C(F)(F)C4)cccc32)nn2c(C(=O)NC3CCC3OC)cnc12` (stereo not shown) [I-1000], for which the “TYK2 MSD OCI-LY10 Dmax %” value is “A (A (>90%))” and the DC50 was less than 1 nM.

`CNc1cc(N2CCc3c(-c4ncc(CN5CC6(CCN(C(=O)c7ccc(C)c(N8CCC(=O)NC8=O)c7)CC6(F)F)C5)cc4F)cccc32)nn2c(C(=O)N[C@@H]3CC[C@H]3OC)cnc12` [I-1004]: the “TYK2 MSD OCI-LY10 Dmax %” value is “A (A (>90%))” and the DC50 was less than 1 nM.

For `CNc1cc(N2CCc3c(-c4ncc(CN5CC6(CCN(C(=O)c7cc(N8CCC(=O)NC8=O)c(Cl)cc7F)CC6(F)F)C5)cc4F)cccc32)nn2c(C(=O)NC3CCC3OC)cnc12` (stereo not shown) [I-1005], the “TYK2 MSD OCI-LY10 Dmax %” value was “A (A (>90%))” and the DC50 is less than 1 nM.

For `CNc1cc(N2CCc3c(-c4ccc(CN5CCC(N6CCC(COc7ccc(Cl)c(N8CCC(=O)NC8=O)c7)CC6)CC5)cn4)cccc32)nn2c(C(=O)NC3CCC3OC)cnc12` (stereo not shown) [I-1006], the “TYK2 MSD OCI-LY10 Dmax %” value is recorded as “B (B (90 to >75%))” and the 50% degradation concentration (DC50) was less than 10 nM.

Regarding `CNc1cc(N2CCc3c(-c4ncc(CN5CC6(CCN(C(=O)c7cc(N8CCC(=O)NC8=O)c(C)cc7F)CC6(F)F)C5)cc4F)cccc32)nn2c(C(=O)NC3CCC3OC)cnc12` (stereo not shown) [I-1007], the “TYK2 MSD OCI-LY10 Dmax %” value is “A (A (>90%))” and the DC50 was less than 1 nM.

Broadly, the Dmax is the greatest extent of degradation seen. A lower Dmax goes with a partial loss of target. Regarding `CNc1cc(N2CCc3c(-c4ncc(CN5CC6(CCN(C(=O)c7cc(Cl)c(C)c(N8CCC(=O)NC8=O)c7)CC6(F)F)C5)cc4F)cccc32)nn2c(C(=O)N[C@@H]3C[C@@H]3F)cnc12` [I-1008, 6-(4-(5-((7-(3-chloro-5-(2,4-dioxotetrahydropyrimidin-1(2H)-yl)-4-methylbenzoyl)-5,5-difluoro-2,7-diazaspiro[3.5]nonan-2-yl)methyl)-3-fluoropyridin-2-yl)indolin-1-yl)-N-((1R,2S)-2-fluorocyclopropyl)-8-(methylamino)imidazo[1,2-b]pyridazine-3-carboxamide], the maximal degradation (Dmax) was more than 90% and the DC50 was less than 1 nM.

For the compound `CNc1cc(N2CCc3c(-c4ccc(CN5CCC6(CCC(N(C)c7ccc(Cl)c(N8CCC(=O)NC8=O)c7)CC6)CC5)cn4)cccc32)nn2c(C(=O)N[C@@H]3CC[C@H]3OC)cnc12` [I-1009], the “TYK2 MSD OCI-LY10 Dmax %” value was “B (B (90 to >75%))” and the DC50 was less than 10 nM.

For `CNc1cc(N2CCc3c(-c4ccc(CN5CCC6(CCC(Oc7ccc(Cl)c(N8CCC(=O)NC8=O)c7)CC6)C(F)(F)C5)cn4)cccc32)nn2c(C(=O)NC3CCC3OC)cnc12` (stereo not shown) [I-1010], the “TYK2 MSD OCI-LY10 Dmax %” value is “B (B (90 to >75%))” and the 50% degradation concentration (DC50) was less than 10 nM.

On to `CNc1cc(N2CCc3c(-c4ccc(CN5CC6(CCN(Cc7ccc(Cl)c(N8CCC(=O)NC8=O)c7)CC6(F)F)C5)cn4)cccc32)nn2c(C(=O)NC3CCC3OC)cnc12` (stereo not shown) [I-1011], for which the “TYK2 MSD OCI-LY10 Dmax %” value is “B (B (90 to >75%))” and the DC50 was less than 10 nM.

Take `CNc1cc(N2CCc3c(-c4ncc(CN5CC6(CCN(C(=O)c7cc(N8CCC(=O)NC8=O)c(C)cn7)CC6(F)F)C5)cc4F)cccc32)nn2c(C(=O)N[C@@H]3C[C@@H]3F)cnc12` [I-1012]: the “TYK2 MSD OCI-LY10 Dmax %” value is “A (A (>90%))” and the DC50 was less than 1 nM.

For the compound `CNc1cc(N2CCc3c(-c4ncc(CN5CC6(CCN(C(=O)c7cc(F)c(C)c(N8CCC(=O)NC8=O)c7)CC6(F)F)C5)cc4F)cccc32)nn2c(C(=O)N[C@@H]3C[C@@H]3F)cnc12` [I-1016], the “TYK2 MSD OCI-LY10 Dmax %” value is reported as “A (A (>90%))” and the DC50 was less than 1 nM.

As for `CNc1cc(N2CCc3c(-c4ccc(OC5CC6(CCN(C(=O)c7cc(C)c(Cl)c(N8CCC(=O)NC8=O)c7)CC6)C5)cn4)cccc32)nn2c(C(=O)N[C@@H]3C[C@@H]3F)cnc12` [I-1017], the “TYK2 MSD OCI-LY10 Dmax %” value is given as “B (B (90 to >75%))” and the DC50 is less than 10 nM.

`CNc1cc(N2CCc3c(-c4ncc(CN5CC6(CCN(C(=O)c7ccc(C)c(N8CCC(=O)NC8=O)c7)CC6(F)F)C5)cc4F)cccc32)nn2c(C(=O)N[C@@H]3C[C@@H]3F)cnc12` [I-1018]: the “TYK2 MSD OCI-LY10 Dmax %” value is listed as “A (A (>90%))” and the DC50 is less than 1 nM.

With `CNc1cc(N2CCc3c(-c4ncc(CN5CC6(CCN(C(=O)c7ccc(OC)c(N8CCC(=O)NC8=O)c7)CC6(F)F)C5)cc4F)cccc32)nn2c(C(=O)N[C@@H]3C[C@@H]3F)cnc12` [I-1019], the “TYK2 MSD OCI-LY10 Dmax %” value is “A (A (>90%))” and the DC50 was less than 1 nM.

On to `CNc1cc(N2CCc3c(CN4CCC(N5CCC6(CCN(C(=O)c7cc(N8CCC(=O)NC8=O)c(C)cn7)CC6)CC5)C(F)(F)C4)cccc32)nn2c(C(=O)N[C@@H]3C[C@@H]3F)cnc12` (stereo partly shown) [I-1022], for which the “TYK2 MSD OCI-LY10 Dmax %” value is reported as “B (B (90 to >75%))” and the DC50 is less than 1 nM.

Regarding `CNc1cc(N2CCc3c(-c4ncc(CN5CC6(CCN(C(=O)c7ccc(Cl)c(N8CCC(=O)NC8=O)c7)CC6(F)F)C5)cc4F)cccc32)nn2c(C(=O)N[C@@H]3C[C@@H]3F)cnc12` [I-1023], the “TYK2 MSD OCI-LY10 Dmax %” value was “A (A (>90%))” and the DC50 was less than 1 nM.

Regarding `CNc1cc(N2CCc3c(-c4ncc(CN5CC6(CCN(C(=O)c7cc(Cl)c(C)c(N8CCC(=O)NC8=O)c7)CC6(F)F)C5)cc4F)cc(F)cc32)nn2c(C(=O)NC3CCC3OC)cnc12` (stereo not shown) [I-1038], the “TYK2 MSD OCI-LY10 Dmax %” value is given as “A (A (>90%))” and the DC50 is less than 1 nM.

As to `CNc1cc(N2CCc3c(CN4CCC(N5CCC(C6CCN(C(=O)c7cc(C)c(Cl)c(N8CCC(=O)NC8=O)c7)CC6)CC5)C(F)(F)C4)cccc32)nn2c(C(=O)N[C@@H]3CC[C@H]3OC)cnc12` (stereo partly shown) [I-1066], the “TYK2 MSD OCI-LY10 Dmax %” value is listed as “A (A (>90%))” and the DC50 is less than 1 nM.

As for `CNc1cc(N2CCc3c(CN4CCC(N5CC6(CCN(C(=O)c7cc(Cl)c(C)c(N8CCC(=O)NC8=O)c7)CC6)C5)C(F)(F)C4)cccc32)nn2c(C(=O)N[C@@H]3CC[C@H]3OC)cnc12` (stereo partly shown) [I-1068], the “TYK2 MSD OCI-LY10 Dmax %” value is “A (A (>90%))” and the DC50 was less than 1 nM.

Turning to `CNc1cc(N2CCc3c(CN4CCC(N5CCC(C6CCN(C(=O)c7ccc(Cl)c(N8CCC(=O)NC8=O)c7)CC6)CC5)C(F)(F)C4)cccc32)nn2c(C(=O)N[C@@H]3CC[C@H]3OC)cnc12` (stereo partly shown) [I-1069], the “TYK2 MSD OCI-LY10 Dmax %” value is listed as “A (A (>90%))” and the DC50 was less than 1 nM.

As to `CNc1cc(N2CCc3c(-c4ccc(CN5CC6(CCN(C(=O)c7cc(C)c(Cl)c(N8CCC(=O)NC8=O)c7)CC6(F)F)C5)cn4)cccc32)nn2c(C(=O)NC(C)c3ncco3)cnc12` (stereo not shown) [I-1072], the “TYK2 MSD OCI-LY10 Dmax %” value is listed as “B (B (90 to >75%))” and the DC50 is less than 10 nM.

Turning to `CNc1cc(N2CCc3c(CN4CCC(N5CC6(CCN(C(=O)c7cc(C)c(Cl)c(N8CCC(=O)NC8=O)c7)CC6)C5)C(F)(F)C4)cccc32)nn2c(C(=O)N[C@@H]3CC[C@H]3OC)cnc12` (stereo partly shown) [I-1073], the “TYK2 MSD OCI-LY10 Dmax %” value was “A (A (>90%))” and the DC50 was less than 1 nM.
